From PMC11288129, “Diversely evolved xibalbin variants from remipede venom inhibit potassium channels and activate PKA-II and Erk1/2 signaling” (BMC Biology, 2024) come the findings set out here.

Positions of bridges follow the written chain, without caps; N, C: chain ends. No end group written: not given here.

For one data set, the system named is rKv1.2. As to the kind of experiment: TEVC inhibition, Kv1.2. It is filed as cell-based, rat. Conditions: 1 µM. An excerpt:
(§1) For the expression of Kv channels rat Kv1.1 (GenBank accession number: NM_173095 [88, 89]), rKv1.2 (NM_012970 [90, 91]), human Kv1.3 (NM_002232 [92, 93]), rKv1.4 (NM_012971 [94, 95]), rKv1.6 (NM_023954 [96, 97]), hKv2.1 (NM_004975 [98, 99]), hKv3.1 (NM_004976 [100, 101]), rKv4.2 (NM_031739 [102, 103]), hKv10.1 (NM_172362 [104, 105]), hERG1 [Kv11.1, (NM_000238 [106, 107])], and Shaker IR [from Drosophila melanogaster, (NM_167595 [108, 109])], Nav channels [rNav1.2 (NM_012647 [42, 110]), rNav1.4 (NM_013178 [111, 112]), hNav1.5 (NM_198056 [113, 114]), mNav1.6 (NM_001077499 [115, 116]), BgNav [from Blattella germanica, (DQ466887 [117, 118])] and the auxiliary subunits rβ1 (NM_001271045 [119, 120]), hβ1 (NM_001037 [121, 122]), and TipE [from D. melanogaster, (NM_079196 [109, 123])], and Cav channels hCav3.1 [124, 125], hCav3.2 [126, 127], and hCav3.3 [128, 129] in Xenopus oocytes, the linearized plasmids were transcribed using the T7 or SP6 mMESSAGEmMACHINE transcription kit (Ambion, Austin, TX, USA). Mature female animals were purchased from Nasco (Fort Atkinson, USA) and were housed in the Aquatic Facility (KU Leuven) in compliance with the regulations of the European Union (EU) concerning the welfare of laboratory animals as declared in Directive 2010/63/EU. The use of X. laevis oocytes was approved by the Animal Ethics Committee of the KU Leuven with the license number P186/2019. Stage V–VI oocytes were collected from anesthetized female X. laevis frog as previously described, with the frogs anesthetized by placement in 0.1% tricaine solution (amino benzoic acid ethyl ester; Merck, USA). Oocyte microinjection was performed using a microinjector (Drummond Scientifc®, USA), with a programmed cRNA injection volume of 4—50 nL, depending on the channel subtype. The oocytes were incubated in ND96 solution (96 mM NaCl, 2 mM KCl, 1.8 mM CaCl2, 2 mM MgCl2, and 5 mM HEPES, pH 7.4), supplemented with 50 mg/l gentamicin sulfate.
(§2) Electrophysiological measurements were performed at room temperature (18–22 °C) using the two-electrode voltage clamp (TEVC) technique. Data were obtained using a GeneClamp 500 amplifier (Axon Instruments, USA), and Clampex9 software (Axon Instruments), responsible for data acquisition and storage. Glass micropipettes were produced using glass capillaries (borosilicate WPI 1B120-6) and drawn in a WPI (World Precision Instruments, USA) manual stretcher. The bath and perfusion solutions were either the previously described ND96 (Nav and Kv channels) or calcium-free ND96 supplemented with 10 mM BaCl2 (Cav channels).
(§3) Whole-cell currents of oocytes were recorded 1 to 3 days after injection. Current and voltage electrodes were filled with 3 M KCl and their resistance was adjusted from 0.7 to 2.0 MΩ. Currents were sampled at 20 kHz (Nav channels) and 10 kHz (Kv and Cav channels) and filtered using a four-pole Bessel low-pass Bessel filter, at 1 kHz for sodium, and […] for potassium and calcium, except for the hERG ion channel, in which the currents were filtered at 1 kHz. Leak subtraction was performed using a -P/4 protocol. Kv1.x currents were evoked by 500 ms depolarizations to 0 mV followed by a 500-ms pulse to − 50 mV, from a holding potential of − 90 mV. Kv2.1, Kv3.1, and Kv4.2 currents were elicited by 500 ms pulses to + 20 mV from a holding potential of − 90 mV. Current traces of Kv10.1 were elicited by 2 s depolarization to 0 mV, from a holding potential of − 90 mV. Current traces of hERG1 channel were elicited by applying a + 40 mV prepulse for 2 s followed by a step of − 120 mV for 2 s. Sodium current traces were evoked by a 100 ms depolarization to 0 mV, from a holding potential of − 90 mV. The current–voltage (IV) relationships were determined by 100-ms step depolarizations between − 90 and + 40 mV, using 5 mV increments. […]

The next data set has as its system hERG1 (Kv11.1). As to the kind of experiment: TEVC inhibition, Kv11.1 (hERG1). Format: cell-based. Conditions: human, Xenopus laevis oocytes expressing hERG1 (Kv11.1), pH 7.4, replicate 1. The text has this: For the expression of Kv channels rat Kv1.1 (GenBank accession number: NM_173095 [88, 89]), rKv1.2 (NM_012970 [90, 91]), human Kv1.3 (NM_002232 [92, 93]), rKv1.4 (NM_012971 [94, 95]), rKv1.6 (NM_023954 [96, 97]), hKv2.1 (NM_004975 [98, 99]), hKv3.1 (NM_004976 [100, 101]), rKv4.2 (NM_031739 [102, 103]), hKv10.1 (NM_172362 [104, 105]), hERG1 [Kv11.1, (NM_000238 [106, 107])], and Shaker IR [from Drosophila melanogaster, (NM_167595 [108, 109])], Nav channels [rNav1.2 (NM_012647 [42, 110]), rNav1.4 (NM_013178 [111, 112]), hNav1.5 (NM_198056 [113, 114]), mNav1.6 (NM_001077499 [115, 116]), BgNav [from Blattella germanica, (DQ466887 [117, 118])] and the auxiliary subunits rβ1 (NM_001271045 [119, 120]), hβ1 (NM_001037 [121, 122]), and TipE [from D. melanogaster, (NM_079196 [109, 123])], and Cav channels hCav3.1 [124, 125], hCav3.2 [126, 127], and hCav3.3 [128, 129] in Xenopus oocytes, the linearized plasmids were transcribed using the T7 or SP6 mMESSAGEmMACHINE transcription kit (Ambion, Austin, TX, USA). […]
Whole-cell currents of oocytes were recorded 1 to 3 days after injection. […] The current–voltage (IV) relationships were determined by 100-ms step depolarizations between − 90 and + 40 mV, using 5 mV increments. […]

In another data set the test system is hKv3.1. As to the kind of experiment: TEVC inhibition, Kv3.1. Format: cell-based, human. On the set-up: unit not given here. Conditions: 1 µM.
From the text: as §1, §2, §3

Another data set relates to Kv1.1. As to the kind of experiment: TEVC inhibition, Kv1.1. The arrangement: Inhibition data, Kv1.1: unit not given here. Conditions: 1 µM. Format: cell-based, rat.
From the text: as §1, §2, §3

Another data set relates to Kv1.3. Description: TEVC inhibition, Kv1.3. Format: cell-based, human. On the set-up: unit not given here. The note with it: 1 µM.
From the text: as §1, §2, §3

The inhibition is the drop in the measured response relative to a control, in per cent. As to “KRSCIRRFGRCDHRPNDCCYNSSCRCNLWGSNCRCQRMGLFQKWGK (disulfide 4-19, 11-24, 18-35, 26-33) [xib13]”, the “Inhibition data, Kv1.2” value in the data set on rKv1.2 (replicate 1) came to 58.6; with rKv1.2 (replicate 2), 71.3; in the data set with rKv1.2 (replicate 3) it was 77.9. In the data set with hERG1 (Kv11.1), this sequence gave an inhibition at 1 µM of 0%. Also, the “Inhibition data, Kv3.1” value in the data set with hKv3.1 (replicate 1), with hKv3.1 (replicate 2), in the data set on hKv3.1 (replicate 3) and in the data set with hKv3.1 (replicate 4) was 0.0 in each case. Moreover, the “inhibition of Kv1.1” value with Kv1.1 was “inhibit especially Kv1.1 channels”. Further, the “Inhibition data, Kv1.1” value in the data set with Kv1.1 (replicate 1) is on record as 83.4; with Kv1.1 (replicate 2) it was 86.7; in the data set with Kv1.1 (replicate 3) it was 85.0; in the data set with Kv1.1 (replicate 4) it was 83.1. Besides, the “Inhibition data, Kv1.3” value is given as 61.2 in the data set with Kv1.3 (replicate 1), 57.8 with Kv1.3 (replicate 2), 41.4 in the data set with Kv1.3 (replicate 3) and 53.4 in the data set with Kv1.3 (replicate 4).

As for “RLFCIRHHKYCGHRPKRCCSGLFCRCNTFGTNCRCQSKGALGKLI (disulfide 4-19, 11-24, 18-35, 26-33) [xib1]”, in the data set on rKv1.2 (Xenopus oocytes, ND96, 18–22 °C, mean ± SEM, n ≥ 3), the “inhibition of Kv1.2” value was determined as 50.2 ± 2.6%. The “Inhibition data, Kv1.2” value in the data set with rKv1.2 (replicate 1) turned out to be 52.8; with rKv1.2 (replicate 2), 47.6; in the data set on rKv1.2 (replicate 3), 48.2; in the data set on rKv1.2 (replicate 4), 46.0. The sequence further had an inhibition at 1 µM with hERG1 (Kv11.1) of 0%. Also, the “Inhibition data, Kv3.1” value in the data set with hKv3.1 (replicate 1), with hKv3.1 (replicate 2), in the data set on hKv3.1 (replicate 3) and in the data set with hKv3.1 (replicate 4) was 0.0 throughout. Moreover, in the data set on Kv1.1, the “inhibition of Kv1.1” value was “inhibit especially Kv1.1 channels”. Besides, the “Inhibition data, Kv1.1” value came out at 76.3 with Kv1.1 (replicate 1), 66.2 in the data set on Kv1.1 (replicate 2), 76.2 in the data set with Kv1.1 (replicate 3) and 75.3 with Kv1.1 (replicate 4). The “Inhibition data, Kv1.3” value in the data set with Kv1.3 (replicate 1) turned out to be 59.5; in the data set on Kv1.3 (replicate 2) it was 65.4; in the data set with Kv1.3 (replicate 3), 60.6; with Kv1.3 (replicate 4) it was 62.3.
